Test results: PMC3814616, “BRAF inhibitors suppress apoptosis through off-target inhibition of JNK signaling” (eLife, 2013)

Columns and labels:
Assay in all cases: Quantitative competitive binding assay (KINOMEscan)
[1] = target: T1, ASK1 (MAP3K5) (Homo sapiens, UniProt Q99683); conditions: for IC50: estimated Kd, averaged pointwise estimates, transformed Hill equation, read-out: Calculated estimate of IC50; for remaining binding at 0.05 µM: read-out: Percent control (50 nM); for remaining binding at 0.2 µM: read-out: Percent control (200 nM); for remaining binding at 1 µM: read-out: Percent control (1000 nM); for remaining binding at 10 µM: read-out: Percent control (10 μM)
T1 construct: purchased KINOMEscan (DiscoveRx), San Diego, CA
T1 sequence (Q99683 1-1374): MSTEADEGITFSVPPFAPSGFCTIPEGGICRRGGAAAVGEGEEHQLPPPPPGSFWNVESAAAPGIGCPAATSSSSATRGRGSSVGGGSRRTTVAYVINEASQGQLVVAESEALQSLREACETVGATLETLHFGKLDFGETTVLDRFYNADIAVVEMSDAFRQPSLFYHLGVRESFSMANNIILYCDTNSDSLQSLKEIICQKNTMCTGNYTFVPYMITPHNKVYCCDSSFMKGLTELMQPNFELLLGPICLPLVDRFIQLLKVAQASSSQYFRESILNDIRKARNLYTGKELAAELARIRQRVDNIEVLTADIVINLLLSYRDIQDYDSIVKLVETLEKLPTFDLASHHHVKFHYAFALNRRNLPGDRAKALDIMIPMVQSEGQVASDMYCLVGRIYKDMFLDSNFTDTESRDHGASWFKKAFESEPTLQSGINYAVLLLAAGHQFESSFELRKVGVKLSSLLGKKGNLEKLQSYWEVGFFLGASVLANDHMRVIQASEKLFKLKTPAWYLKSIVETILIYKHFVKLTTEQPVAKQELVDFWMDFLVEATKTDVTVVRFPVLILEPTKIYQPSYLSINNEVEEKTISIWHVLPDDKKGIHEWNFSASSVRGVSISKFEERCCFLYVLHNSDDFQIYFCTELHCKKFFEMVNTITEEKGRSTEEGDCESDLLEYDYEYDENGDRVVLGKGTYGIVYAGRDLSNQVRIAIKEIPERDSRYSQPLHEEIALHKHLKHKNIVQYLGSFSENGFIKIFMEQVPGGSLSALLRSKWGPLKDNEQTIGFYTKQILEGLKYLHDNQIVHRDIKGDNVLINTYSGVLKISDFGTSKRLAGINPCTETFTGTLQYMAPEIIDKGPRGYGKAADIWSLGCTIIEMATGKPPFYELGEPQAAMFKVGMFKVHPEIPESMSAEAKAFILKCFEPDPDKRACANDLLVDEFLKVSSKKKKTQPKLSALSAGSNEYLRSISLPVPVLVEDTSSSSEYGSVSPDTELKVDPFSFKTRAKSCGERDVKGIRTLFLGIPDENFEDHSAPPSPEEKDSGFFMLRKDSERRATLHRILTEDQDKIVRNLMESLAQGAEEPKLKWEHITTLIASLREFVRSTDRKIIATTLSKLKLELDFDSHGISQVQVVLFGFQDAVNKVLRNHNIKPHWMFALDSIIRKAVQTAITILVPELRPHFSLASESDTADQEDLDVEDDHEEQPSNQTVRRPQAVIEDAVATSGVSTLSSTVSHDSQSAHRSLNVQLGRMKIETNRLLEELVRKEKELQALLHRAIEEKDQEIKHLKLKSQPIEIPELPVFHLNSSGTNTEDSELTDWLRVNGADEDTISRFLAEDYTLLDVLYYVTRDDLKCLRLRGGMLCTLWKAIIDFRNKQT

[2] = target: T2, MEK6 (MAP2K6) (Homo sapiens, UniProt P52564); conditions: for remaining binding at 0.05 µM: read-out: Percent control (50 nM); for remaining binding at 0.2 µM: read-out: Percent control (200 nM); for remaining binding at 1 µM: read-out: Percent control (1000 nM); for remaining binding at 10 µM: read-out: Percent control (10 μM)
T2 construct: purchased KINOMEscan (DiscoveRx), San Diego, CA

[3] = target: T3, MAP3K4 (Homo sapiens, UniProt Q9Y6R4); conditions: for remaining binding at 0.05 µM: read-out: Percent control (50 nM); for remaining binding at 0.2 µM: read-out: Percent control (200 nM); for remaining binding at 1 µM: read-out: Percent control (1000 nM); for remaining binding at 10 µM: read-out: Percent control (10 μM)
T3 construct: purchased KINOMEscan (DiscoveRx), San Diego, CA

[4] = target: T4, MST1 (STK4) (Homo sapiens, UniProt Q13043); conditions: for remaining binding at 0.05 µM: read-out: Percent control (50 nM); for remaining binding at 0.2 µM: read-out: Percent control (200 nM); for remaining binding at 1 µM: read-out: Percent control (1000 nM); for remaining binding at 10 µM: read-out: Percent control (10 μM)
T4 construct: purchased KINOMEscan (DiscoveRx), San Diego, CA
T4 sequence (Q13043 1-487): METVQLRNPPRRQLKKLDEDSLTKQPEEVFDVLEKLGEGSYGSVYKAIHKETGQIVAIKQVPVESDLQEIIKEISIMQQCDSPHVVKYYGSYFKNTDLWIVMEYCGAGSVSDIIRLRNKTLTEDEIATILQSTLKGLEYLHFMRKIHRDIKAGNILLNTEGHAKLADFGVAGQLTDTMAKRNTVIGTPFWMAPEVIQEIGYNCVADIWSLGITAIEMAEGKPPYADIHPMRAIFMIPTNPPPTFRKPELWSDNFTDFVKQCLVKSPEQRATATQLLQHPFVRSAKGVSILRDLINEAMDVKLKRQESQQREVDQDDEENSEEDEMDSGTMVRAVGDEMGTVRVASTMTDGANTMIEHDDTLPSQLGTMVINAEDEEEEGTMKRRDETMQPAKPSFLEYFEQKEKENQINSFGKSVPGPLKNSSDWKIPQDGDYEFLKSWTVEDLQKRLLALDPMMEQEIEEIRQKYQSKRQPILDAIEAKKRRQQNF

[5] = target: T5, FGR (Homo sapiens, UniProt P09769); conditions: for IC50: estimated Kd, averaged pointwise estimates, transformed Hill equation, read-out: Calculated estimate of IC50; for remaining binding at 0.05 µM: read-out: Percent control (50 nM); for remaining binding at 0.2 µM: read-out: Percent control (200 nM); for remaining binding at 1 µM: read-out: Percent control (1000 nM); for remaining binding at 10 µM: read-out: Percent control (10 μM)
T5 construct: purchased KINOMEscan (DiscoveRx), San Diego, CA

[6] = target: T6, MEK3 (MAP2K3) (Homo sapiens, UniProt P46734); conditions: for remaining binding at 0.05 µM: read-out: Percent control (50 nM); for remaining binding at 0.2 µM: read-out: Percent control (200 nM); for remaining binding at 1 µM: read-out: Percent control (1000 nM); for remaining binding at 10 µM: read-out: Percent control (10 μM)
T6 construct: purchased KINOMEscan (DiscoveRx), San Diego, CA

[7] = estimated Kd, averaged pointwise estimates, transformed Hill equation, read-out: Calculated estimate of IC50

T2 sequence (P52564 whole entry): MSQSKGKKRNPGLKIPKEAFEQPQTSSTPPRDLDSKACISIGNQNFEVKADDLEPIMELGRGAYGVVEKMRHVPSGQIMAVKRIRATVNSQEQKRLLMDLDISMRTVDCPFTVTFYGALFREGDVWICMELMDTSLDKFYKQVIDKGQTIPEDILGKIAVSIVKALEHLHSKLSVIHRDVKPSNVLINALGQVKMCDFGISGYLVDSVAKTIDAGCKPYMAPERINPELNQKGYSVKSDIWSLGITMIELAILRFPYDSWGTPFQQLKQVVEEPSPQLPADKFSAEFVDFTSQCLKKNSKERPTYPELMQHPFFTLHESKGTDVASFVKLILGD
T6 sequence (P46734 whole entry): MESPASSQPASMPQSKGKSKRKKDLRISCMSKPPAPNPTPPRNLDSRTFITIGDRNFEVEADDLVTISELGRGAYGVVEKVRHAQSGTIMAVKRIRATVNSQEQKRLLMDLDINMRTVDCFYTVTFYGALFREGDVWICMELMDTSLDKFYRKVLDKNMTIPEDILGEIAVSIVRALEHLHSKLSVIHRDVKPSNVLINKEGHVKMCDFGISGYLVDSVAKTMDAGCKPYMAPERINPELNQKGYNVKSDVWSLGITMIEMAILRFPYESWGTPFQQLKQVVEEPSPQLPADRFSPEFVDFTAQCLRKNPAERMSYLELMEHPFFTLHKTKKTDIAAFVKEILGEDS
T5 sequence (P09769 whole entry): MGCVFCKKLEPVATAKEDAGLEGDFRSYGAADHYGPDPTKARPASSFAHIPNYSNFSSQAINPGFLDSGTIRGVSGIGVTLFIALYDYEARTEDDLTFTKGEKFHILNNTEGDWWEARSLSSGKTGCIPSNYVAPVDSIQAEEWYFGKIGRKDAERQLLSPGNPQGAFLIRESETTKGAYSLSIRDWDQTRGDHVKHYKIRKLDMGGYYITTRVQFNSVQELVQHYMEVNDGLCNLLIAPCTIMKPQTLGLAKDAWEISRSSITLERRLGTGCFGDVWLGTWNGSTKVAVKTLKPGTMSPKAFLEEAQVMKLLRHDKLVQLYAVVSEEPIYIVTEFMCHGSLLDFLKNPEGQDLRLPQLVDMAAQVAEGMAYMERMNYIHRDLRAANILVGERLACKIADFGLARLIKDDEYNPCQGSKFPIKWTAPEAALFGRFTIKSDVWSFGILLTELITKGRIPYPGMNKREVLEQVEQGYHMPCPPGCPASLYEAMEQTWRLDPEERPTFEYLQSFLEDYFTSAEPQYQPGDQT
T3 sequence (Q9Y6R4 whole entry): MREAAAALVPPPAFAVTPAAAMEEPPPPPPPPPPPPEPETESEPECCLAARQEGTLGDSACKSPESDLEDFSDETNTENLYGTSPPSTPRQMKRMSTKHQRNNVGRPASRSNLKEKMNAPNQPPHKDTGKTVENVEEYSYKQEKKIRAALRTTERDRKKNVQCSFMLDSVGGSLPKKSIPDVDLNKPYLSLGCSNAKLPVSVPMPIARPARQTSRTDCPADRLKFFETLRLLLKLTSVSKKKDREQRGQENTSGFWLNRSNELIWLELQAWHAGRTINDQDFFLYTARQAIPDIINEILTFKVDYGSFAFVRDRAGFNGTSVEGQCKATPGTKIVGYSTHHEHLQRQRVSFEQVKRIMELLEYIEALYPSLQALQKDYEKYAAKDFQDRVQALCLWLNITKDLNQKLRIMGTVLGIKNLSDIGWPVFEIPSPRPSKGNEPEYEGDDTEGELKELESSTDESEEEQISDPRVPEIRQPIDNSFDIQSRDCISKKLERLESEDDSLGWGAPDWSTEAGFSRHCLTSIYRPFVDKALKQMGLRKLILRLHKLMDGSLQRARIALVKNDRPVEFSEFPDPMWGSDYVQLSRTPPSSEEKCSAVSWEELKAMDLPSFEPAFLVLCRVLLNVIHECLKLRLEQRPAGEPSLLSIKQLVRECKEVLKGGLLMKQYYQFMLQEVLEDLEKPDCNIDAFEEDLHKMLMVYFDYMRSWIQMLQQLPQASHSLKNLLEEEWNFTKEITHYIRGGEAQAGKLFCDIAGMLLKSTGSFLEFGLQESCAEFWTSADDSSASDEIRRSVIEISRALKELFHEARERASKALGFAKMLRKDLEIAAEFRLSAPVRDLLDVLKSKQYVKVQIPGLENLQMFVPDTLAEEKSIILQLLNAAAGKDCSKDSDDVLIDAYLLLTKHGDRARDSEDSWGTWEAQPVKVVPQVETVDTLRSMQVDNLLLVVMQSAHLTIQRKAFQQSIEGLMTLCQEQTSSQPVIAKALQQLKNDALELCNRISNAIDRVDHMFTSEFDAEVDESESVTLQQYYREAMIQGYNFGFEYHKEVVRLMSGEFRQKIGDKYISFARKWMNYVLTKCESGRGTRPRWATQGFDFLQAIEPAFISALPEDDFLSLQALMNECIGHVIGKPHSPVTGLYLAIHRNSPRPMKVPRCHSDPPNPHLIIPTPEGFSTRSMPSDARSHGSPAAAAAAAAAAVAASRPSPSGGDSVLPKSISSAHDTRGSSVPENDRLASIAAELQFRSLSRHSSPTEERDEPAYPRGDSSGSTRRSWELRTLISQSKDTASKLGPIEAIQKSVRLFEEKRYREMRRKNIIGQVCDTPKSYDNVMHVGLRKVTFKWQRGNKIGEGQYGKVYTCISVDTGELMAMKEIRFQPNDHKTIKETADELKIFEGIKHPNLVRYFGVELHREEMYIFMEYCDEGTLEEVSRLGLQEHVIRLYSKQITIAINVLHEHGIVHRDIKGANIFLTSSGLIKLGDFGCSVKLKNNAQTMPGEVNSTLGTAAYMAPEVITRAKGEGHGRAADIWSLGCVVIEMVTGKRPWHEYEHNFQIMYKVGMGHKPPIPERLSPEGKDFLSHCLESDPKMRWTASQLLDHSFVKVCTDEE

Row | SMILES | IC50 [1] [µM] | remaining binding at 0.05 µM [1] [%] | remaining binding at 0.2 µM [1] [%] | remaining binding at 1 µM [1] [%] | remaining binding at 10 µM [1] [%] | remaining binding at 0.05 µM [2] [%] | remaining binding at 0.2 µM [2] [%] | remaining binding at 1 µM [2] [%] | remaining binding at 10 µM [2] [%] | remaining binding at 0.05 µM [3] [%] | remaining binding at 0.2 µM [3] [%] | remaining binding at 1 µM [3] [%] | remaining binding at 10 µM [3] [%] | remaining binding at 0.05 µM [4] [%] | remaining binding at 0.2 µM [4] [%] | remaining binding at 1 µM [4] [%] | remaining binding at 10 µM [4] [%] | IC50 [5] [µM] | remaining binding at 0.05 µM [5] [%] | remaining binding at 0.2 µM [5] [%] | also measured
1 | CCCS(=O)(=O)Nc1ccc(F)c(C(=O)c2c[nH]c3ncc(-c4ccc(Cl)cc4)cc23)c1F [vemurafenib] | 12 | 90 | 94 | 97 | 100 | 91 | 97 | 87 | 21 | 95 | 92 | 87 | 46 | 99 | 83 | 51 | 12 | 0.149 | 65 | 49 | IC50 [2, 7]: 4.08 µM; remaining binding at 1 µM [5]: 13%; remaining binding at 10 µM [5]: 1.6%; remaining binding at 0.05 µM [6]: 100%; remaining binding at 0.2 µM [6]: 96%; remaining binding at 1 µM [6]: 98%; remaining binding at 10 µM [6]: 54%
2 | CCCS(=O)(=O)Nc1ccc(F)c(C(=O)c2c[nH]c3ncc(Cl)cc23)c1F [PLX4720] | 14.2 | 89 | 98 | 97 | 100 | 82 | 100 | 100 | 47 | 100 | 100 | 100 | 65 | 100 | 93 | 84 | 55 | 0.153 | 69 | 38 | IC50 [4, 7]: 6.71 µM; remaining binding at 1 µM [5]: 11%; remaining binding at 10 µM [5]: 2.5%; remaining binding at 0.05 µM [6]: 100%; remaining binding at 0.2 µM [6]: 100%; remaining binding at 1 µM [6]: 100%; remaining binding at 10 µM [6]: 64%
